Key:
[1] = tested on: HIF transcriptional activity; experiment: Luciferase reporter assay (FLuc/RLuc) in hypoxic Hep3B-c1 cells; format: cell-based; details: Homo sapiens, FLuc/RLuc ratio, 1% O2, 24 hours
Protocol: The NCI CellMiner database contains expression data on 25,698 mRNAs in 60 human cancer cell lines that were exposed to 21,770 chemical compounds (Reinhold W C, et. al., Cancer Res. 2012; 72(14):3499-3511). The CellMiner database was interrogated for compounds that induced changes in gene expression highly correlated with those induced by acriflavine, but would be structurally unrelated to acriflavine. Compounds that satisfied these criteria were analyzed in Hep3B-c1 cells (Zhang H. et. al., Proc Natl Acad Sci USA. 2008; 105(50):19579-19586), which are stably transfected with: HIF dependent reporter plasmid p2.1, in which firefly luciferase (FLuc) coding sequences are located downstream from a hypoxia response element (HRE) and a basal SV40 promoter; and control reporter pSVR, in which Renilla luciferase (RLuc) coding sequences are downstream of the basal SV40 promoter only (FIG. 1A).
Hep3B-c1 cells (Zhang 2008), which are stably co-transfected with reporter plasmids p2.1, a hypoxia-inducible firefly luciferase reporter gene containing a hypoxia response element (HRE), and pSVR, a constitutively expressed Renilla luciferase reporter gene, were seeded on 24-well plates. Cells were treated with compounds the following day and exposed to 20% or 1% O2 for 24 hours. For transient transfection, cells were seeded, transfected with the listed plasmids and compounds, and exposed to 20% or 1% O2 for 24 hours. FLuc/RLuc ratios were determined using the Dual Luciferase Reporter Assay System (Promega) and the VICTOR Nivo plate reader (PerkinElmer).

[2] = tested on: HIF target genes; experiment: RT-qPCR of HIF target gene expression in Hep3B cells; format: cell-based, human
Protocol: Based on hit compound 11-88, a number of analogs were prepared in which either halogen substitutions to the indole groups were altered or the central thiazole was replaced by imidazole, isoxazole, oxadiazole, oxazole, pyrazinone, pyridazine, pyrazine, pyrazole, pyridine, thiadiazole, triazine, or triazole. […] The bis-bromoindole thiazole 32-134D and the bis-indole thiadiazole 33-063 (FIGS. 1B and 1C) were further characterized with respect to endogenous HIF target gene expression in Hep3B cells. […] For comparison, we tested the effect of PT2385, which inhibited EPO, NDRG1, ANGPTL4, and VEGFA expression but had no effect on CA9, which is consistent with its HIF-2-selective mechanism of action (Wallace E M et al., Cancer Res. 2016; 76(18):5491-5500). None of the compounds had any effect on RPL13A expression, which is neither hypoxia-induced nor HIF-regulated (FIG. 3).
(§1) Human Hep3B and mouse Hepa1-6 cells were purchased from ATCC and grown in high-glucose (4.5 mg/ml) Dulbecco's modified Eagle's medium supplemented with 10% (vol/vol) fetal bovine serum and […] at 37° C. in a 5% CO2/95% air incubator (20% O2). Human cell line identity was authenticated by analysis of short tandem repeats, and all cell lines were maintained mycoplasma free, using PCR-based assays conducted at the Johns Hopkins University Genetic Resources Core Facility. Cells were subjected to hypoxia in a controlled atmosphere chamber (PLAS Labs) with ambient gas mixture containing 1% O2 and 5% CO2.
(§2) RNA was extracted using TRIzol Reagent (ThermoFisher). Quantitative Real-time PCR was conducted using SYBR Green PCR Master Mix (BioRad) and reactions were run using the BioRad thermal cycler (BioRad). The mRNA expression of target genes was normalized to the expression of 18S rRNA and the fold change (FC) was calculated based on the threshold cycle (Ct) as
FC=2^−Δ(ΔCt) where ΔCt=Cttarget gene−Ct18S rRNA and Δ(ΔCt)=ΔCttreatment−ΔCtcontrol.

[3] = tested on: Hepa1-6 mouse HCC cells; experiment: RT-qPCR of hypoxia-induced mRNAs in Hepa1-6 cells; format: cell-based; details: hypoxic Hepa1-6 cells
Protocol: Effects of 32-134D on Hepa1-6 mouse HCC cells and tumors. […] Thus, 32-134D inhibits the ability of hypoxic HCC cells to increase O2 delivery by stimulating angiogenesis (Angpt14, Pgf, Vegfa) or […] anaerobic metabolism by increasing glycolytic flux (Glut1, Pgk1, Ldha).
as §1
as §2, with “(Ct) as […]” for “(Ct) as”

[4] = tested on: advanced HCC; details: advanced HCC patients; cited from earlier work

In the case of `Brc1ccc2c(-c3nc(-c4c[nH]c5ccc(Br)cc45)cs3)c[nH]c2c1` [Compound 11-88], the IC50 [1] is reported as 2.9 µM.
With `Brc1ccc2[nH]cc(-c3csc(-c4c[nH]c5ccccc45)n3)c2c1` [Compound 11-147B] the IC50 [1] was 2.92 µM.
Molecule `Brc1ccc2c(-c3csc(-c4c[nH]c5ccccc45)n3)c[nH]c2c1` [Compound 12-58] has an IC50 [1] of 3.09 µM.
For `Brc1ccc2c(-c3nc(-c4cnc5ncccn45)cs3)c[nH]c2c1` [Compound 12-70C], the IC50 [1] was 2.31 µM.
In the case of `O=c1[nH]c2ccc(-c3csc(-c4c[nH]c5ccccc45)n3)cc2o1` [Compound 12-93A], the IC50 [1] is reported as 2.4 µM.
With `c1ccc2c(-c3nc(-c4cnc5ncccn45)cs3)c[nH]c2c1` [Compound 12-93F] the IC50 [1] was 2.48 µM.
For `Fc1cccc2c(-c3nc(-c4c[nH]c5cc(Br)ccc45)cs3)c[nH]c12` [Compound 12-143], the IC50 [1] was 2.6 µM.
With `Fc1ccc2c(-c3nc(-c4c[nH]c5cc(Br)ccc45)cs3)c[nH]c2c1` [Compound 12-147A] the IC50 [1] was 2.52 µM.
Work on `Clc1ccc2c(-c3nc(-c4c[nH]c5cc(Br)ccc45)cs3)c[nH]c2c1` [Compound 12-147B] yielded an IC50 [1] of 3.08 µM.
With `Brc1cccc2c(-c3csc(-c4c[nH]c5c(Br)cccc45)n3)c[nH]c12` [Compound 13-01] the IC50 [1] was 2.07 µM.
Molecule `Brc1ccc2c(-c3nc(-c4c[nH]c5c(Br)cccc45)cs3)c[nH]c2c1` [Compound 13-03] has an IC50 [1] of 2.69 µM.
`Brc1ccc2c(-c3csc(-c4c[nH]c5cc(Br)ccc45)n3)c[nH]c2c1` [Compound 32-134C] showed an IC50 [1] of 2.3 µM.
With `c1ccc2c(-c3csc(-c4c[nH]c5ccccc45)n3)c[nH]c2c1` [Compound 33-057A] the IC50 [1] was 2.86 µM.
For `c1ccc2c(-c3nsc(-c4c[nH]c5ccccc45)n3)c[nH]c2c1` [Compound 33-063, 3,5-di(1H-indol-3-yl)-1,2,4-thiadiazole], the IC50 [1] was 2.2 µM, the “hypoxia-induced expression of HIF target genes CA9, ANGPTL4, VEGFA, NDRG1 and EPO” value [2] was “inhibited” and the “hypoxia-induced expression of mRNA encoding Angpt14, Pgf, Vegfa and Pgk1” value [3] was “significant dose-dependent inhibition”.
`c1ccc2c(-c3nnc(-c4c[nH]c5ccccc45)o3)c[nH]c2c1` [Compound 33-087] gave an IC50 [1] of 2.51 µM.
In the case of `Brc1ccc2[nH]cc(-c3nnc(-c4c[nH]c5ccccc45)o3)c2c1` [Compound 33-093B], the IC50 [1] is reported as 2.7 µM.
In the case of `Brc1ccc2[nH]cc(-c3nnc(-c4c[nH]c5ccc(Br)cc45)o3)c2c1` [Compound 33-103B], the IC50 [1] is reported as 2.87 µM.
Work on `Brc1ccc2c(-c3nnc(-c4c[nH]c5cc(Br)ccc45)o3)c[nH]c2c1` [Compound 33-103C] yielded an IC50 [1] of 2.8 µM.
With `O=c1[nH]cc(-c2c[nH]c3ccccc23)nc1-c1c[nH]c2ccccc12` [Compound 33-123] the IC50 [1] was 3.24 µM.
Molecule `c1cc(-c2c[nH]c3ccccc23)nc(-c2c[nH]c3ccccc23)c1` [Compound 34-090] has an IC50 [1] of 1.83 µM.
`c1ccc2c(-c3cncc(-c4c[nH]c5ccccc45)n3)c[nH]c2c1` [Compound 34-110] gave an IC50 [1] of 1.27 µM.
Molecule `Clc1ncc(-c2c[nH]c3ccccc23)nc1-c1c[nH]c2ccccc12` [Compound 34-146] has an IC50 [1] of 2.04 µM.
`c1ccc2c(-c3ccnc(-c4c[nH]c5ccccc45)n3)c[nH]c2c1` [Compound 35-020] gave an IC50 [1] of 2.37 µM.
With `c1ccc2c(-c3cc(-c4c[nH]c5ccccc45)[nH]n3)c[nH]c2c1` [Compound 35-092] the IC50 [1] was 2.07 µM.
`c1ccc2c(-c3cc(-c4c[nH]c5ccccc45)on3)c[nH]c2c1` [Compound 35-140] gave an IC50 [1] of 1.94 µM.
For `CS(=O)(=O)c1ccc(Oc2cc(F)cc(C#N)c2)c2c1[C@H](O)C(F)(F)C2` [PT2385, reference compound], the CA9 expression [2] was “no effect”, the “EPO, NDRG1, ANGPTL4 and VEGFA expression” value [2] was “inhibited” and the “expression of Pgk1 mRNA” value [3] was “no effect”. For the same molecule, the “Angpt14, Pgf, and Vegfa mRNA expression” value ([3]; compared with 33-063 and 32-134D) was “less potent inhibitor”.
For `CNC(=O)c1cc(Oc2ccc(NC(=O)Nc3ccc(Cl)c(C(F)(F)F)c3)cc2)ccn1` [sorafenib], the survival benefit [4] is given as 2-3 months.
